Results taken from patent US20120302530A1, “23-HYDROXY-BETULINIC ACID DERIVATIVES, PREPARATION METHODS AND USES THEREOF” (priority 2009, published 2012).
Like-named read-outs stand apart in the source and are kept apart here.

Experiments:
[1] = tested on: normal human epithelium of mammary gland (MCF-10a); experiment: MTT cytotoxicity, normal cell strain; assay type: cell-based; details: for EC50: Homo sapiens, Normal Mammary Gland Epithelial Cell, 72 hours, MTT; for sensitivity of normal cells to the compounds: concentration up to 30 μm, cells can still grow well
[2] = tested on: C8166 (human T cell line); experiment: Toxicity to C8166 cells (MTT, day 7); assay type: cell-based; details: Homo sapiens, read-out: IC50 (50% inhibition concentration) to C8166 cell
Procedure: (2) Toxicity of compounds zhangnan-5, zhangnan-7 and zhangnan-8 to C8166 and PBMC cells:
C8166 (human T cell line) and PBM (using lymphocyte isolation liquid to separate from normal human peripheral blood, and adhered mononuclear cell separated from PBMC) cells in exponential phase are taken. The cells are resuspended after centrifugal (1000 r•min-1, 10 min), and the concentrations are adjusted to 4×10^5/ml and 2×10^6/ml. The test samples are double diluted on the 96-hole cell culture plate. In total 6 gradients are set, each having 3 duplicate holes. In addition, positive control group and cell control group are set. Upon adding cell suspended liquid, the test samples are placed in incubator of 370C and 5% CO2 for incubation. On the seventh (7th) day, MTT method is used to determine toxicity of the samples to cells.
Inhibition ratio of cell growth (%)=(1−experimental hole OD value/control hole (OD value)×100%

HIV-1IIIB = experiment: Inhibition of HIV-1IIIB induced syncytium formation in C8166 cells; assay type: cell-based; details: for therapeutic index TI: HIV-1IIIB syncytium, C8166, TI=IC50/EC50; for EC50: Human immunodeficiency virus 1, HIV-1IIIB, C8166 cells, third day after infection
Excerpt: (3) The inhibition effects of compounds zhangnan-5, zhangnan-7 and zhangnan-8 to virus HIV-1IIIB inducing C8166 cell to form syncytium: (see JIANG, Haiou; WANG, Xu; L I, Rurun; CHEN, Dagang; B I, Kunlong, Experimental Research on Recipe Sanhuangsan Capsule for Resisting AIDS virus in Vitro, [J]. Shandong Journal of Traditional Chinese medicine, 2005.8 (1):21-26).
The test sample is double diluted with culture medium on the 96-hole flat culture plate. There are 8 dilutions in total. Each hole 100 ul has 2 duplicate holes. In addition, there are positive control group, cell control group and virus control group. 80 ul C8166 cell of 4×10^5/ml is added into each hole, and then 20 ul virus HIV-1IIIB supernatant is added into each hole. The final volume of each hole is 200 ul. The sample is placed in incubator of 370C, 5% CO2 for cultivation. […] Under the inverted microscope, the number of syncytium formed by virus HIV-1IIIB inducing C8166 cell is counted. […] The following formula is used to calculate the inhibition ratio of the sample to syncytium.
Inhibition ratio formed by syncytium (%)=(1−experimental hole syncytium number/control hole syncytium number)×100%

HIV-1Ada-M = experiment: ELISA of HIV-1Ada-M p24 antigen expression in PBMC; assay type: cell-based; details: for therapeutic index TI: HIV-1Ada-M p24, PBMC, TI=IC50/EC50; for EC50: Human immunodeficiency virus 1, HIV-1Ada-M, PBMC, 7th day, ELISA, read-out: EC50, inhibition of p24 antigen expression
Excerpt: (4) Quantitative Enzyme Linked Immunoadsorbent method (EIISA) detecting inhibiting effects of compounds to virus HIV-1Ada-Mp24 expression: (see JIANG, Haiou; WANG, Xu; L I, Rurun; CHEN, Dagang; B I, Kunlong, Experimental Research on Recipe Sanhuangsan Capsule Resisting AIDS Virus in Vitro, [J], Shandong Journal of Traditional Chinese medicine, 2005.8 (1):21-26).
Multi-heads sample injector is used to conduct triple dilution to the sample on the 96-hole culture plate. There are 6 dilutions, in which each dilution has 3 duplicate holes, and each hole is 100 ul. […] On the 96-hole flat culture plate, each hole is added with 25 ul virus stock solution containing 1000˜5000 pg/well P24 antigen, which is sufficiently blended. 75 ul mononuclear cell PBMC suspension liquid is added (3×10^5 cell numbers/hole). Upon placing in incubator of 37° C., 5% CO2 to the third day, 100 ul of culture medium is added to each hole. On the 7th day, cell culture supernatant is collected for p24 antigen test. According to p24 kit description, ELISA method is used to measure the virus HIV-1 p24 antigen concentration of each sample cell culture hole supernatant. The following formula is used to calculate the inhibition ratio of sample to virus.
Inhibition ratio of sample to virus p24 antigen (%)=(1−experimental hole OD value/cell+virus control hole OD value)×100%. Reed and Mueneh method is used to calculate EC50 of the test sample, and to further calculate the therapeutic index (TI) (TI=IC50/EC50). […] The positive control SCH-C, 23-hydroxyl-betulinic acid, compounds zhangnan-5, zhangnan-7 and zhangnan-8 all reach an inhibition ratio above 50% within the tested range. The positive control SCH-C inhibits HIV-1Ada-M p24 antigen expression. […] In addition, the inhibition effect to HIV-1Ada-M has significant dose-effect relationship with its concentration.

human tumor cell strains = experiment: MTT cytotoxicity, human tumor cell strains (summary statement); assay type: cell-based; details: some (unnamed) human tumor cell strains, 72 hours, read-out: EC50 of some tumor cells
Excerpt: We use human tumor cell lines to conduct cytotoxicity analysis. Thirty-one (31) kinds of human tumor cell strains are cultivated in the normal culture medium containing various compounds of zhangnan-5, zhangnan-7 and zhangnan-8. The human tumor lines are bought from ATCC and NCI, and is cultivated with DMEM culture solution containing 10% FBS in 370C couveuse containing 5% CO2. The merged cells are digested by trypsinase, and are counted after washed by the culture solution. 3000˜6000 cells are added into each hole of the 96-hole culture plate, and are hatched for 16 hours or 24 hours. Then, compounds zhangnan-5, zhangnan-7 and zhangnan-8 with different concentrations are added into the holes. Upon further cultivated for another 72 hours, MTT tests are conducted to cells in group treated with drugs and the control group cells, to determine the survival condition of the cells.

[3] = Acute toxicity of zhangnan-5 to mice upon feeding; assay type: in vivo, BlebC mice
Excerpt: (6) Research on the acute toxicity of compound zhangnan-5 to mice upon feeding the drug: (see Gol'dberg L E, Stepanova E S, Vertogradova T P, Shevniuk L A, Shepelevtseva G. Preclinical toxicological study of the new antibiotic eremomycin. Its acute toxicity for laboratory animals, Antibiot Med Biotekhnol. 1987, 32 (12): 910-5).
Two groups of 8-week old BlebC mice are taken, and each group has 10 mice (five male and five female). The mice are fed with the compound zhangnan-5 (prepared with corn oil or carrier) in single dose 500 mg/kg and in multi-dose 200 mg/kg (QDX15), respectively. Then, observation is made to the mice for 1 week and 4 week, respectively. The mice are weighted every other day. When the test is over, the tested mice are killed for pathological analysis. […] Thus, the compound zhangnan-5 has great potential to be developed as a new antineoplastic drug of wide spectrum. The compound zhangnan-5 can be used as drug substance of anti-tumor drugs, preferably used as drug substance of anti-malignant solid tumor drugs. The compound zhangnan-5 can also be used with drug carrier and/or excipient to make anti-tumor drug. The drug carrier and/or excipient can be, for example, corn oil, sodium carboxymethylcellulose, and the like.

CC(C)C1CCC2(C(=O)O)CCC3(C)C(CCC4C5(C)CCC(=O)C(C)(CO)C5CCC43C)C12 (stereo not shown) [zhangnan-7]
EC50 [1]: > 30000 nM
sensitivity of normal cells to the compounds [1]: not sensitive
IC50 ([2]; 168 h, C8166, day 7, MTT): 25000 ± 5200 nM
therapeutic index TI (HIV-1IIIB): 13158
EC50 (HIV-1IIIB): 1.9 ± 0.2 nM
therapeutic index TI (HIV-1Ada-M): 9923
EC50 (HIV-1Ada-M): 2.6 ± 0.5 nM

CC(C)C1CCC2(C(=O)O)CCC3(C)C(CCC4C5(C)CCC(O)C(C)(CO)C5CCC43C)C12 (stereo not shown) [zhangnan-8, 23-hydroxyl-dihydrobetulinic acid]
EC50 [1]: > 30000 nM
sensitivity of normal cells to the compounds [1]: not sensitive
IC50 ([2]; 168 h, C8166, day 7, MTT): 10300 ± 2900 nM
therapeutic index TI (HIV-1IIIB): 9.4
EC50 (HIV-1IIIB): 1100 ± 90 nM
therapeutic index TI (HIV-1Ada-M): 7.3
EC50 (HIV-1Ada-M): 1600 ± 230 nM

C=C(C)C1CCC2(C(=O)O)CCC3(C)C(CCC4C5(C)CCC(=O)C(C)(CO)C5CCC43C)C12 (stereo not shown) [zhangnan-5]
EC50 [1]: > 30000 nM
sensitivity of normal cells to the compounds [1]: not sensitive
EC50 (human tumor cell strains): < 100 nM
IC50 ([2]; C8166, 168 h): 2300 ± 470 nM
therapeutic index TI (HIV-1IIIB): 4.6
EC50 (HIV-1IIIB): 500 ± 70 nM
therapeutic index TI (HIV-1Ada-M): 3.4
EC50 (HIV-1Ada-M): 700 ± 190 nM
toxicity, multi-dose ([3]; fed, multi-dose 200 mg/kg (QDX15), observed 4 week): no toxicity is observed
acute toxicity ([3]; fed, single dose 500 mg/kg, observed 1 week): no toxicity is observed
mortality ([3]; single dose 500 mg/kg and multi-dose 200 mg/kg (QDX15)): no single death
